Results reported in patent US20230414794A1, “PSMA INHIBITOR, COMPOUND AND APPLICATION” (PEKING UNIVERSITY FIRST HOSPITAL, priority 2019, published 2023).

What was measured:
[1] = target: PSMA (Homo sapiens (Human), UniProt Q04609); experiment: PSMA inhibitory activity (NAAG hydrolysis by LNCaP cell lysate, Amplex Red glutamate detection); assay type: biochemical; settings: for Ki / inhibition at 6.667 µM: LNCaP cell lysate; for Ki: NAAG substrate, Ki by Cheng-Prusoff equation; for inhibition at 6.667 µM: inhibitor 6667 nM, read-out: % inhibited at 6667 nM
Description: A LNCaP cell lysate (total protein concentration: 125 μg/mL) was prepared in advance. 25 μL of the cell lysate, 25 μL of the inhibitor and 25 μL of N-acetylaspartylglutamate (NAAG, 16 μM) were incubated together in a 96-well plate (Costar Assay Plate, Cat#. 3925) at 37° C. for 180 min. The amount of glutamate released by hydrolysis of NAAG was measured using an Amplex Red Glutamic Acid Kit (Molecular Probes Inc., Eugene, OR) working solution (50 μL) after incubation for 30 min Fluorescence were measured using Synergy H1 Hybrid Reader (BioTek Instruments, Inc., Winooski, Vermont) at excitation wavelength of 530 nm and emission wavelength of 590 nm. An inhibition curve was plotted by a semi-logarithmic method. […] The inhibition constant (Ki) of the enzyme was calculated by the Cheng-Prusof equation. Each experiment was performed in triplicates. Data analysis was performed by GraphPad Prism 7.0 (GraphPad Software, San Diego, California).

[2] = target: PSMA (LNCaP cells) (Homo sapiens (Human), UniProt Q04609); experiment: Fluorescence microscopy imaging of LNCaP cells stained with Compound S1, with or without Compound S2; assay type: cell-based; settings: room temperature
Description: LNCaP cells were diluted to 1×10^6/mL with RPMI-1640 (containing 10% FBS). For staining, the cells and 2 μM Compound S1 were incubated at room temperature for 1 h. For the inhibition group, the cells were incubated with 2 μM Compound S1 and 200 μM Compound S2 together for 1 h at room temperature. After the staining was completed, excess dye compound was removed by centrifugation, and the cells were resuspended in cold PBS and blown well, 100 μL of which was taken and added to a 96-well plate, left for several minutes and then observed under a fluorescence microscope.

[3] = target: PSMA (LNCaP cells with high PSMA expression) (Homo sapiens (Human), UniProt Q04609); experiment: Flow cytometric analysis: inhibition of YC-36 staining of LNCaP cells; assay type: cell-based; settings: 2 μM YC-36 plus 200 μM Compound S2 (100×), 1 h, room temperature, flow cytometry
Description: LNCaP cells were diluted to 1×10^6/mL with RPMI-1640 (containing 10% FBS). For staining, the cells and 2 μM YC-36 were incubated at room temperature for 1 h, and then washed twice with the same medium. The cells were resuspended in cold PBS. For the inhibition group, the cells were incubated with 2 μM YC-36 and 200 μM Compound S2 for 1 hour at room temperature. The cells were analyzed by BD Influs Cell Sorter (BD Biosciences, San Jose, CA95131, USA) flow cytometry and the FlowJo software, and the results are shown in FIG. 6. The black area (left in Panel A) represents the LNCaP cells without dye, and the blue area (right in Panel A) represents the LNCaP cells after co-incubation with YC-36.
YC-36 is a fluorescent molecule having a high affinity for PSMA, and can selectively stain cells with high PSMA expression (Kiess, A.P., et al., Auger Radiopharmaceutical Therapy Targeting Prostate […]. J Nucl Med, 2015. 56(9): p. 1401-1407).

Sequence of PSMA (Q04609 whole entry): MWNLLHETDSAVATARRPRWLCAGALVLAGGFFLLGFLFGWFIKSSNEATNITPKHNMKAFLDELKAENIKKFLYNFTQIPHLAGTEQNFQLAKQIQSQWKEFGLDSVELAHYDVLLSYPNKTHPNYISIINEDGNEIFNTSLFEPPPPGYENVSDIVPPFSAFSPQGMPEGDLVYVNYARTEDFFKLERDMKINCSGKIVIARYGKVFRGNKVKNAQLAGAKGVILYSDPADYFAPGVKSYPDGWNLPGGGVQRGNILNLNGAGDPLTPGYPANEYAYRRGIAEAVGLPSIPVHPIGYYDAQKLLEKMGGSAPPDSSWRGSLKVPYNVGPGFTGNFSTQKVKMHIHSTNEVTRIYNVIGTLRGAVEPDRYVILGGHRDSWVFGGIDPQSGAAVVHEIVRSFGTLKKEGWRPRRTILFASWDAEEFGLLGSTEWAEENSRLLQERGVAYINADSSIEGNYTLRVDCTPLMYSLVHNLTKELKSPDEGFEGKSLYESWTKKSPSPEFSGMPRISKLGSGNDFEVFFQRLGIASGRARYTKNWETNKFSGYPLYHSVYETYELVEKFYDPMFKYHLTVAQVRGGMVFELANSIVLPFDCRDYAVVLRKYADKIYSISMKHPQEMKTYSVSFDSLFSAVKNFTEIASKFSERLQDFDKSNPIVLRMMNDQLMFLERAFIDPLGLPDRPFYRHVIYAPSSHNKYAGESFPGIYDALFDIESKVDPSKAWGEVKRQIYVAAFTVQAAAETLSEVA
Sequence of PSMA (LNCaP cells) (Q04609 whole entry): as above
Sequence of PSMA (LNCaP cells with high PSMA expression) (Q04609 whole entry): as above

Row | SMILES | Ki [1] [nM] | inhibition at 6.667 µM [1] [%] | inhibition of staining of LNCaP cells by the blue dye Compound S1 ([2]; 2 μM Compound S1 plus 200 μM Compound S2 (100×), 1 h) | inhibition of staining of LNCaP cells by YC-36 [3] | affinity relative to ZJ-43 ([1]; fold higher affinity than ZJ-43, from Ki in Table 1) [times] | staining of LNCaP cells ([2]; 2 μM Compound S1, 1 h)
1 | CC(C)C[C@H](NC(=O)N[C@@H](CNC(=O)c1ncc[nH]1)C(=O)O)C(=O)O [Comparative Compound DS1, (S)-2-(3-((S)-1-carboxy-2-(1H-imidazole-2-carboxamido)ethyl)ureido)-4-methylpentanoic acid] | > 1000 | 10.7 | – | – | – | –
2 | CC(C)C[C@H](NC(=O)N[C@@H](CNC(=O)c1c[nH]cn1)C(=O)O)C(=O)O [Comparative Compound DS2, (S)-2-(3-((S)-1-carboxy-2-(1H-imidazole-4-carboxamido)ethyl)ureido)-4-methylpentanoic acid] | > 1000 | 20.6 | – | – | – | –
3 | CC(C)C[C@H](NC(=O)N[C@@H](CNC(=O)c1c[nH]nn1)C(=O)O)C(=O)O [Comparative Compound DS3, (S)-2-(3-((S)-1-carboxy-2-(1H-1,2,3-triazole-4-carboxamido)ethyl)ureido)-4-methylpentanoic acid] | > 1000 | 47.3 | – | – | – | –

Continued, in another order:

Row | Ki [1] [nM] | inhibition at 6.667 µM [1] [%] | inhibition of staining of LNCaP cells by the blue dye Compound S1 ([2]; 2 μM Compound S1 plus 200 μM Compound S2 (100×), 1 h) | inhibition of staining of LNCaP cells by YC-36 [3] | affinity relative to ZJ-43 ([1]; fold higher affinity than ZJ-43, from Ki in Table 1) [times] | SMILES | staining of LNCaP cells ([2]; 2 μM Compound S1, 1 h)
4 | 5.96 | – | – | – | – | Nc1ccc2c(CC(=O)NCCCC[C@H](NC(=O)N[C@@H](CNC(=O)C(=O)O)C(=O)O)C(=O)O)cc(=O)oc2c1 [Compound S1, (45,85)-15-(7-amino-2-oxo-2H-chromen-4-yl)-1,6,14-trioxo-2,5,7,13-tetraazapentadecane-1,4,8-tricarboxylic acid] | stained the cells by specific binding to PSMA
5 | 0.08 | – | significantly inhibit | significantly inhibited | 44 | O=C(N[C@@H](CCCCNC(=O)c1ccc(I)cc1)C(=O)O)N[C@@H](CNC(=O)C(=O)O)C(=O)O [Compound S2, (45,85)-14-(4-iodophenyl)-1,6,14-trioxo-2,5,7,13-tetraazatetradecane-1,4,8-tric arboxylic acid] | –
6 | 5.69 | – | – | – | – | CC(C)C[C@H](NC(=O)N[C@@H](CNC(=O)C(=O)O)C(=O)O)C(=O)O [Compound S3, (S)-2-(3-((S)-1-carboxy-2-(carboxyformamido)ethyl)ureido)-4-methylpentanoic acid] | –
